# Laboratory results as given in PMC9220351, “Evaluation of a Conformationally Constrained Indole Carboxamide as a Potential Efflux Pump Inhibitor in Pseudomonas aeruginosa” (Antibiotics, 2022).
# Tested on: P. aeruginosa ATCC 27853 inner membrane potential
# Test: DiOC2 (3) membrane polarization assay
# Type: cell-based, Pseudomonas aeruginosa
# Conditions: Pseudomonas aeruginosa, ATCC27853; read-out: IC50 (DiOC2 (3) membrane polarization, Figure 4A)
# Method: RND efflux pumps couple the influx of protons from the proton gradient across the inner membrane to the efflux of drugs and other molecules. […] The effect of TXA09155 on the proton gradient of P. aeruginosa was assessed with a fluorescence-based 3,3′-diethyloxacarbocyanine iodide [DiOC2 (3)] assay that was developed to measure membrane potential changes in Gram-negative bacteria. DiOC2 (3) is a positively charged fluorescent dye that accumulates within cells in a charge-dependent manner, shifting its fluorescence spectrum from green to red at high concentrations due to concentration-dependent dye stacking. […] Azithromycin and CCCP were used as […] controls, respectively.
# P. aeruginosa membrane polarization assays were conducted as described previously using strain ATCC 27853. […] DiOC2 (3) fluorescence was recorded in a microplate reader using 450 nm excitation and 670 nm emission (for red fluorescence). Background correction for each concentration of each compound was obtained from reading the fluorescence of compounds in the resuspension buffer without cells. After background correction, fluorescence was normalized to that of the vehicle (DMSO) only. After a 30 min incubation at 37 °C, DiOC2 (3) fluorescence was recorded using a SpectraMax iD5 spectrophotometer (Molecular Devices, San Jose, CA, USA) following excitation at 450 nm. […]
smiles,measurement,value
"N#CC(C#N)=NNc1cccc(Cl)c1 [CCCP, Carbonyl cyanide 3-chlorophenylhydrazone]",IC50,15 nM
